Measured values: US8951999B2, “Compounds” (Orexo AB, priority 2009, dated 2015)

biological target: T1, recombinant human mPGES-1 (Homo sapiens, UniProt O14684); assay: Assay B: mPGES-1 enzyme assay (modified); assay type: biochemical; conditions: biological assay B (all other compounds); PGH2 final conc. 2 μM, HTRF; read-out: mPGES-1 inhibitory effect IC50
T1 sequence (O14684 1-152): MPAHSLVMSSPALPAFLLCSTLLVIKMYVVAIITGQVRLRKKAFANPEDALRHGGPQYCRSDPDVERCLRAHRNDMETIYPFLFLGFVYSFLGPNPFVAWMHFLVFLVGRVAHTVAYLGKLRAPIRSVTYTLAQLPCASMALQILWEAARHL
Method: Assay B: mPGES-1 Enzyme Assay (Modified)
The aim of this assay is to determine the affinity of a test compound for the mPGES-1 enzyme.
47 μl of recombinant human mPGES-1 (˜0.5 μg protein/well) containing microsomal suspension in a buffer containing GSH, (2.5 mmol/L L-Glutathione reduced, dissolved in 0.1 mol/L Phosphat Buffer pH 7.4) is dispensed in a 384-well plate and thereafter 1 μl of the test compound(s) is/are added and incubated for 25 minutes at room temperature. The enzyme reaction is started by the addition of 2 ul PGH2 (final conc. 2 μM) dissolved in water-free Diglyme. After 60 seconds the reaction is terminated by addition of a stop solution containing FeCl2 (10 μL 0.074 mol/l FeCl2). The samples are diluted between 1:25 in PBS (Phosphate Buffered Saline). 10 μl of the diluted samples are transferred to 384-well low volume plate. In order to quantify the amount of PGE2 that has been formed, a homogenous time resolved fluorescent (HTRF) detecting of PGE2 has been performed using a commercially available kit from Cisbio according to the manufactures recommendation. This HTRF-based assay has been described in detail (see: Goedken et al., J Biomol Screen, 2008, 13(7), 619-625). Briefly, the diluted samples are mixed with […] PGE2-d2 conjugate and 5 μl anti-PGE2 cryptate conjugate. After an incubation period of the plates over night, the fluorescence is measured by the use of an appropriate microplate reader.
The fluorescence of Europium cryptate (maxex=307 nm, maxem=620 nm) and d2-PGE2 (maxex=620 nm, maxem=665 nm) are measured.
The extent of the specific HTRF is measured as a ratio of the emission intensity at 665 nm vs. that at 620 nm at an excitation pulse of 320 nm. The quantification plate contains also wells with different concentrations of PGE2 as calibration curve for the calculation of the PGE2 concentrations from the HTRF ratio values.
From all mPGES enzyme assay the background is subtracted and the IC50 is calculated over a nonlinear regression with conventional software.

SMILES	IC50 [nM]
CC(C)(C)C(=O)NCc1ccc(C(F)(F)F)c(C(=O)Nc2ccc(OCC(F)F)c(C(=O)Nc3ccc(Br)cc3)c2)c1 [Example 42, N-[4-(2,2-Difluoroethyl)oxy-3-(4-bromophenyl)aminocarbonyl-phenyl]-2-trifluormethyl-5-(tert-butylcarbonylamino)methyl-benzamide]	3
O=C(Nc1ccc(Br)cc1)c1cc(NC(=O)c2c(F)ccc(CNC(=O)C(F)(F)F)c2Cl)ccc1OCC(F)F [Example 43, N-[4-(2,2-Difluoroethyl)oxy-3-(4-bromophenyl)aminocarbonyl-phenyl]-6-fluor-2-chlor-3-(trifluormethylcarbonylamino)methyl-benzamide]	120
CC(C)(C)C(=O)NCc1ccc(F)c(C(=O)Nc2ccc(OCC(F)F)c(C(=O)Nc3ccc(Br)cc3)c2)c1Cl [Example 44, N-[4-(2,2-Difluoroethyl)oxy-3-(4-bromophenyl)aminocarbonyl-phenyl]-6-fluor-2-chlor-3-(tert-butylcarbonylamino)methyl-benzamide]	15
CC(C)(C)C(=O)NCc1ccc(Cl)c(C(=O)Nc2ccc(OCC(F)F)c(C(=O)Nc3ccc(Br)cc3)c2)c1F [Example 45, N-[4-(2,2-Difluoroethyl)oxy-3-(4-bromophenyl)aminocarbonyl-phenyl]-6-chlor-2-fluor-3-(tert-butylcarbonylamino)methyl-benzamide]	4
CC(C)(C)C(=O)NCc1ccc(Cl)c(C(=O)Nc2ccc(OCC(F)F)c(C(=O)Nc3ccc(F)c(Cl)c3)c2)c1F [Example 46, N-[4-(2,2-Difluoroethyl)oxy-3-(4-fluoro-3-chloro-phenyl)aminocarbonyl-phenyl]-6-chloro-2-fluoro-3-(tert-butylcarbonylamino)methyl-benzamide]	5
CC(C)(C(=O)NCc1ccc(Cl)c(C(=O)Nc2ccc(OCC(F)F)c(C(=O)Nc3ccc(Br)cc3)c2)c1Cl)C(F)(F)F [Example 47, N-[4-(2,2-Difluoroethyl)oxy-3-(4-bromophenyl)aminocarbonyl-phenyl]-2,6-dichloro-3-(2,2,2-trifluoro-1,1-dimethyl-ethyl)carbonylaminomethyl-benzamide]	6
CC(C)(C)C(=O)NCc1ccc(Cl)c(C(=O)Nc2ccc(OCC(F)F)c(C(=O)N[C@H]3CC[C@H](C(F)(F)F)CC3)c2)c1Cl [Example 48, N-[4-(2,2-Difluoroethyl)oxy-3-[trans-(4-trifluoromethylcyclohexyl)amino]carbonylphenyl]-2,6-dichloro-3-(tert-butylcarbonylamino)methyl-benzamide]	6
CC(C)(C)C(=O)NCc1ccc(F)c(C(=O)Nc2ccc(F)c(C(=O)Nc3ccc(Br)cc3)c2)c1F [Example 49, N-[4-Fluoro-3-(4-bromophenyl)aminocarbonyl-phenyl]-2,6-difluoro-3-(tert-butylcarbonylamino)methyl-benzamide]	120
CC(C)(C)C(=O)NCc1ccc(F)c(C(=O)Nc2ccc(OCC(F)F)c(C(=O)N[C@H]3CC[C@H](C(F)(F)F)CC3)c2)c1F [Example 50]	34
Cc1c(CNC(=O)C(C)(C)C)ccc(Cl)c1C(=O)Nc1ccc(OCC(F)F)c(C(=O)Nc2ccc(Br)cc2)c1 [Example 51, N-[4-(2,2-Difluoroethyl)oxy-3-(4-bromophenyl)aminocarbonyl-phenyl]-6-chloro-2-methyl-3-(tert-butylcarbonylamino)methyl-benzamide]	5
Cc1ccc(CNC(=O)C(C)(C)C)c(Cl)c1C(=O)Nc1ccc(OCC(F)F)c(C(=O)Nc2ccc(Br)cc2)c1 [Example 52, N-[4-(2,2-Difluoroethyl)oxy-3-(4-bromophenyl)aminocarbonyl-phenyl]-2-chloro-6-methyl-3-(tert-butylcarbonylamino)methyl-benzamide]	4
COCCOc1ccc(NC(=O)c2cc(CNC(=O)C3(C(F)(F)F)CC3)ccc2Cl)cc1C(=O)N[C@H]1CC[C@H](C(F)(F)F)CC1 [Example 53, N-[4-(2-Methoxy)ethoxy-3-(trans-4-trifluoromethylcyclohexyl)aminocarbonyl-phenyl]-2-chloro-5-[1-(trifluoromethyl)cyclopropyl]carbonylaminomethyl-benzamide]	11
CC(C)(C)C(=O)NCc1ccc(Cl)c(C(=O)Nc2ccc(N[C@H]3CC[C@H](C(F)(F)F)CC3)c(C(=O)N[C@H]3CC[C@H](C(F)(F)F)CC3)c2)c1 [Example 56, N-[4-(trans-4-trifluoromethylcyclohexyl)amino-3-[trans-(4-trifluoromethylcyclohexyl)amino]carbonyl-phenyl]-2-chloro-5-(tert-butylcarbonylamino)methyl-benzamide]	128
CC(C)(C(=O)NCc1ccc(Cl)c(C(=O)Nc2ccc(N3CCC(F)CC3)c(C(=O)Nc3ccc(F)c(Cl)c3)c2)c1F)C(F)(F)F [Example 57, N-[4-(4-Fluoro-piperidin-1-yl)-3-(3-chloro-4-fluorophenyl)aminocarbonyl-phenyl]-2-fluoro-6-chloro-3-[(2,2,2-trifluoro-1,1-dimethyl-ethyl)carbonylamino]methyl-benzamide]	2
CC(C)(C)C(=O)NCc1ccc(Cl)c(C(=O)Nc2ccc(N3CCC(C(F)(F)F)CC3)c(C(=O)N[C@H]3CC[C@H](C(F)(F)F)CC3)c2)c1 [Example 58, N-[4-(4-Trifluoromethyl-piperidin-1-yl)-3-(trans-4-trifluoromethylcyclohexyl)aminocarbonyl-phenyl]-2-chloro-5-(tert-butylcarbonylamino)methyl-benzamide]	3
CC(C)(C(=O)NCc1ccc(Cl)c(C(=O)Nc2ccc(N3CCC(C(F)(F)F)CC3)c(C(=O)NCC3CC3)c2)c1Cl)C(F)(F)F [Example 59, N-[4-(4-Trifluoromethyl-piperidin-1-yl)-3-(cyclopropylmethyl)aminocarbonyl-phenyl]-2,6-dichloro-3-[(2,2,2-trifluoro-1,1-dimethyl-ethyl)carbonylamino]methyl-benzamide]	5
CC(C)(C)C(=O)NCc1ccc(Cl)c(C(=O)Nc2ccc(N3CC(F)(F)C3)c(C(=O)Nc3ccc(Br)cc3)c2)c1 [Example 60, N-[4-(3,3-Difluoro-azetidin-1-yl)-3-(4-bromphenyl)aminocarbonyl-phenyl]-2-chloro-5-(tert-butylcarbonylamino)methyl-benzamide]	26
CC(C)(C)C(=O)NCc1ccc(Cl)c(C(=O)Nc2ccc(N3CCC(F)CC3)c(C(=O)Nc3ccc(Br)cc3)c2)c1Cl [Example 61]	5
CC(C)(C)C(=O)NCc1ccc(Cl)c(C(=O)Nc2ccc(N3CCC(C(F)(F)F)CC3)c(C(=O)NCC3CC3)c2)c1 [Example 63]	5
COCCOc1ccc(NC(=O)c2cc(CNC(=O)C(C)(C)C(F)(F)F)ccc2Cl)cc1C(=O)N[C@H]1CC[C@H](C(F)(F)F)CC1 [Example 64]	4
COCCOc1ccc(NC(=O)c2cc(CNC(=O)C(C)C(F)(F)F)ccc2Cl)cc1C(=O)Nc1ccc(Br)cc1 (centres unmarked) [Example 65, N-[4-(2-Methoxy)ethoxy-3-(4-bromphenyl)aminocarbonyl-phenyl]-2-chloro-5-(2,2,2-trifluoro-1-methyl-ethyl)carbonylaminomethyl-benzamide]	4
CC(C)(C)C(=O)NCc1ccc(Cl)c(C(=O)Nc2ccc(OC3CCOC3)c(C(=O)Nc3ccc(Br)cc3)c2)c1 (centres unmarked) [Example 66, N-[4-(Tetrahydrofuran-3-yloxy)-3-(4-bromophenyl)aminocarbonyl-phenyl]-2-chloro-5-(tert-butyl-carbonylaminomethyl)-benzamide]	5
CC(C)(C(=O)NCc1ccc(Cl)c(C(=O)Nc2ccc(OC3CCOC3)c(C(=O)N[C@H]3CC[C@H](C(F)(F)F)CC3)c2)c1)C(F)(F)F (some centres unmarked) [Example 67]	5
O=C(Nc1ccc(OC2CCOC2)c(C(=O)N[C@H]2CC[C@H](C(F)(F)F)CC2)c1)c1cc(CNC(=O)C2(C(F)(F)F)CC2)ccc1Cl (some centres unmarked) [Example 68]	9
CC(C)(C(=O)NCc1ccc(Cl)c(C(=O)Nc2ccc(OC3CCOC3)c(C(=O)Nc3ccc(Br)cc3)c2)c1)C(F)(F)F (centres unmarked) [Example 69]	4
COCCOc1ccc(NC(=O)c2cc(CNC(=O)C(C)(C)C)ccc2Cl)cc1C(=O)Nc1ccc(Br)cc1 [Example 70]	5
COCCOc1ccc(NC(=O)c2cc(CNC(=O)C(C)(C)C)ccc2Cl)cc1C(=O)N[C@H]1CC[C@H](C(F)(F)F)CC1 [Example 71]	10
COCCOc1ccc(NC(=O)c2cc(CNC(=O)C(C)(C)C(F)(F)F)ccc2Cl)cc1C(=O)Nc1ccc(Br)cc1 [Example 72]	4
CC(C)(C)C(=O)NCc1ccc(F)c(C(=O)Nc2cnc(OCC(F)F)c(C(=O)Nc3ccc(Br)cc3)c2)c1F [Example 74]	47
